Source: the supplement of paper PMC7840683
± gives the standard deviation of the averaged measurements.

Test system: HepaRG
Assay: LDH release cytotoxicity, % of total lysis control; higher = more cytotoxic
Details: 48 h
Summary of the method: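 The CytoTox-ONE kit was used to read LDH in 50 µL spent medium as resorufin fluorescence on a Tecan Safire, with 0.1% Triton X added to total lysis wells. Beforehand, single-lot HepaRG cells on collagen I-coated 96-well plates had been exposed in duplicate for 48 h to eight-point half-log series (top 100 µM) in serum-free induction medium containing 0.5% DMSO. Percent cytotoxicity was normalized against on-plate vehicle and total lysis controls and averaged over duplicates.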

| Structure (SMILES) | LDH release cytotoxicity (0.031623 µM) | LDH release cytotoxicity (0.1 µM) | LDH release cytotoxicity (0.316228 µM) | LDH release cytotoxicity (1 µM) | LDH release cytotoxicity (3.16228 µM) | LDH release cytotoxicity (10 µM) | LDH release cytotoxicity (31.6228 µM) | LDH release cytotoxicity (100 µM) | LDH release cytotoxicity (0.03162 µM) | LDH release cytotoxicity (0.3162278 µM) | LDH release cytotoxicity (0.0314647 µM) | LDH release cytotoxicity (0.0995 µM) | LDH release cytotoxicity (0.3146466 µM) | LDH release cytotoxicity (0.995 µM) | LDH release cytotoxicity (3.14647 µM) | LDH release cytotoxicity (9.95 µM) | LDH release cytotoxicity (31.4647 µM) | LDH release cytotoxicity (99.5 µM) |
| --- | --- | --- | --- | --- | --- | --- | --- | --- | --- | --- | --- | --- | --- | --- | --- | --- | --- | --- |
| CC(C)CCCCCCOC(=O)c1ccc(C(=O)OCCCCCCC(C)C)c(C(=O)OCCCCCCC(C)C)c1 [Triisononyl trimellitate] | -0.391 ± 0.73% | -0.474 ± 2.8% | -1.59 ± 0.86% | -2.21 ± 1.3% | -2.67 ± 0.91% | -1.83 ± 1.2% | -0.993 ± 1.1% | 0.476 ± 0.49% | – | – | – | – | – | – | – | – | – | – |
| O=P(Oc1ccccc1)(Oc1ccccc1)Oc1ccccc1 [Triphenyl phosphate] | – | -1.27 ± 1.3% | – | -1.41 ± 0.43% | -0.353 ± 0.53% | 0.138 ± 0.49% | 2.03 ± 0.5% | 27.1 ± 4.3% | 0.948 ± 2% | -1.47 ± 0.34% | – | – | – | – | – | – | – | – |
| c1ccc(OP(Oc2ccccc2)Oc2ccccc2)cc1 [Triphenyl phosphite] | – | -1.17 ± 0.097% | – | -1.46 ± 0.046% | -0.429 ± 0.71% | -1.22 ± 0.2% | -1.26 ± 0.45% | 1.56 ± 0.67% | -1.51 ± 2.2% | -1.23 ± 0.038% | – | – | – | – | – | – | – | – |
| [OH-].c1cc[c]([Sn+]([c]2ccccc2)[c]2ccccc2)cc1 [Triphenyltin hydroxide] | – | -1.04 ± 0.92% | – | 46.3 ± 2.9% | 68.1 ± 5.3% | 57.1 ± 7.2% | 63.5 ± 2.9% | 64.4 ± 3.7% | -0.226 ± 1.2% | -0.513 ± 0.71% | – | – | – | – | – | – | – | – |
| COCC(C)OCC(C)OCC(C)O (configuration not stated) [Tripropylene glycol monomethyl ether] | – | -2.37 ± 0.59% | – | -3.43 ± 0.28% | -2.88 ± 0.31% | -1.77 ± 1% | -1.51 ± 0.6% | 0.876 ± 1.4% | -2.65 ± 0.75% | -2.65 ± 0.77% | – | – | – | – | – | – | – | – |
| O=P(OC(CCl)CCl)(OC(CCl)CCl)OC(CCl)CCl [Tris(1,3-dichloro-2-propyl) phosphate] | – | -1.46 ± 0.26% | – | -1.12 ± 0.76% | -0.951 ± 0.83% | -0.799 ± 0.15% | 0.114 ± 0.25% | 9.87 ± 0.53% | 0.268 ± 1.8% | -0.407 ± 0.3% | – | – | – | – | – | – | – | – |
| O=c1n(CC2CO2)c(=O)n(CC2CO2)c(=O)n1CC1CO1 (configuration not stated) [Tris(2,3-epoxypropyl)isocyanurate] | – | 0.218 ± 0.46% | – | 0.322 ± 0.34% | -0.576 ± 0.33% | 0.383 ± 0.033% | 0.616 ± 0.68% | 1.86 ± 0.47% | 0.512 ± 0.2% | 0.217 ± 0.89% | – | – | – | – | – | – | – | – |
| O=P(OCCCl)(OCCCl)OCCCl [Tris(2-chloroethyl) phosphate] | – | -0.629 ± 0.15% | – | -1.15 ± 0.9% | -0.623 ± 0.18% | -0.4 ± 0.39% | 0.187 ± 0.64% | 0.367 ± 0.4% | 0.00945 ± 0.48% | -0.615 ± 0.025% | – | – | – | – | – | – | – | – |
| CCCCC(CC)COP(=O)(OCC(CC)CCCC)OCC(CC)CCCC (configuration not stated) [Tris(2-ethylhexyl) phosphate] | – | -1.14 ± 0.93% | – | -1.28 ± 1.1% | -1.23 ± 0.96% | -1.26 ± 1.1% | -0.783 ± 1.4% | 0.473 ± 0.56% | -1.762 ± 0.016% | -1.21 ± 1.2% | – | – | – | – | – | – | – | – |
| CCCCC(CC)COC(=O)c1ccc(C(=O)OCC(CC)CCCC)c(C(=O)OCC(CC)CCCC)c1 (configuration not stated) [Tris(2-ethylhexyl) trimellitate] | – | -0.779 ± 0.11% | – | -0.598 ± 1.5% | -1.18 ± 0.4% | -0.738 ± 0.28% | -0.634 ± 0.44% | 5.97 ± 0.36% | -1.9 ± 0.9% | -1.6 ± 0.82% | – | – | – | – | – | – | – | – |
| CC1(C)CCC(=Cc2ccc(Cl)cc2)C1(O)Cn1cncn1 (configuration not stated) [Triticonazole] | – | – | – | – | – | – | – | – | – | – | -0.271 ± 1.9% | -0.849 ± 0.067% | -0.205 ± 0.74% | -1.22 ± 0.81% | -0.364 ± 0.038% | 0.229 ± 0.84% | 1.76 ± 0.041% | 5.55 ± 0.43% |
| Cc1c(C)c2c(c(C)c1O)CCC(C)(COc1ccc(CC3SC(=O)NC3=O)cc1)O2 (configuration not stated) [Troglitazone] | – | -0.342 ± 0.96% | – | -0.379 ± 0.37% | -0.376 ± 0.74% | -1.1 ± 0.028% | 8.12 ± 13% | 62.4 ± 2.7% | -0.878 ± 0.32% | -1.04 ± 0.091% | – | – | – | – | – | – | – | – |
| CCCCCCCCCCC [Undecane] | -1.34 ± 0.15% | -0.1 ± 0.21% | -2.37 ± 1.8% | -2.3 ± 0.12% | -2.08 ± 1.2% | -0.723 ± 1.2% | -0.989 ± 1.3% | 1.06 ± 0.61% | – | – | – | – | – | – | – | – | – | – |
| NC(N)=O [Urea] | – | -0.896 ± 0.18% | – | -1.62 ± 0.5% | -0.792 ± 0.012% | -0.693 ± 0.13% | -1.24 ± 0.23% | 1.24 ± 0.49% | -1.69 ± 0.59% | -1.17 ± 0.012% | – | – | – | – | – | – | – | – |
| CCOC(N)=O [Urethane] | – | -1.5 ± 0.84% | – | -1.29 ± 0.5% | -1.03 ± 0.12% | -1.2 ± 0.054% | -0.4372 ± 0.0016% | 0.365 ± 1.2% | -1.53 ± 1% | -1.42 ± 0.68% | – | – | – | – | – | – | – | – |
| CCCC(CCC)C(=O)O [Valproic acid] | -0.788 ± 0.37% | -2.27 ± 0.28% | -1.27 ± 1.4% | -2.73 ± 0.65% | -1.85 ± 0.16% | -2.14 ± 2% | -1.38 ± 0.12% | -0.176 ± 0.59% | – | – | – | – | – | – | – | – | – | – |
| CCCSC(=O)N(CCC)CCC [Vernolate] | – | -0.827 ± 0.35% | – | -2.07 ± 0.39% | -1.14 ± 0.45% | -0.659 ± 0.55% | 0.0809 ± 0.59% | 1.84 ± 0.39% | -0.794 ± 1.3% | -0.738 ± 0.55% | – | – | – | – | – | – | – | – |
| C=CC1(C)OC(=O)N(c2cc(Cl)cc(Cl)c2)C1=O (configuration not stated) [Vinclozolin] | -0.342 ± 2.7% | -2.45 ± 0.46% | -2.11 ± 1.4% | -1.77 ± 2.5% | -1.59 ± 1.1% | -1.87 ± 1.3% | -1.19 ± 0.41% | 0.481 ± 0.36% | – | – | – | – | – | – | – | – | – | – |
| COc1cccc(C(O)C2CCN(CCc3ccc(F)cc3)CC2)c1OC (configuration not stated) [Volinanserin] | – | -1.03 ± 1.4% | – | -0.566 ± 0.98% | -0.0858 ± 0.33% | -1.21 ± 0.87% | 0.408 ± 1.3% | 7.12 ± 0.34% | -0.377 ± 0.72% | 0.298 ± 1.8% | – | – | – | – | – | – | – | – |
